Consider four compounds from patent US4201782A, “Thiadiazolyl cephalosporin analogs” (Shionogi & Co., Ltd., priority 1977, dated 1980).

One experiment has as its system P. mirabilis PR-4. Briefly: MIC by agar-dilution, P. mirabilis PR-4. Type of experiment: cell-based. The note with it: Proteus mirabilis, PR4, as sodium salt, pH 7.0, inoculum 10^6, read-out: Minimal Inhibitory Concentration.
The next experiment concerns E. coli EC-14. In words: MIC by agar-dilution, E. coli EC-14. Type of experiment: cell-based. As to conditions: Escherichia coli, EC14, as sodium salt, pH 7.0, inoculum 10^6, read-out: Minimal Inhibitory Concentration.
In the next experiment the test system is S. aureus 209P JC-1. In words: MIC by agar-dilution, S. aureus 209P JC-1. It counts as cell-based. As to conditions: Staphylococcus aureus, as sodium salt, pH 7.0, inoculum 10^6, read-out: Minimal Inhibitory Concentration.
The next experiment has as its system P. vulgaris CN-329. In words: MIC by agar-dilution, P. vulgaris CN-329. Type of experiment: cell-based. As to conditions: Proteus vulgaris, CN329, as sodium salt, pH 7.0, inoculum 10^6, read-out: Minimal Inhibitory Concentration.
A further experiment has as its system E. coli 377. Briefly: MIC by agar-dilution, E. coli 377. It counts as cell-based. As to conditions: Escherichia coli, as sodium salt, pH 7.0, inoculum 10^6, read-out: Minimal Inhibitory Concentration.
The next experiment has as its system K. pneumoniae SHIONOGI
Briefly: MIC by agar-dilution, K. pneumoniae SHIONOGI
It counts as cell-based. The note with it: Klebsiella pneumoniae, as sodium salt, pH 7.0, inoculum 10^6, read-out: Minimal Inhibitory Concentration.

The next experiment concerns S. aureus 077. In words: MIC by agar-dilution, S. aureus 077. As to conditions: Staphylococcus aureus, as sodium salt, pH 7.0, inoculum 10^6, read-out: Minimal Inhibitory Concentration. It counts as cell-based.
The subject of another experiment is E. coli H. Briefly: MIC by agar-dilution, E. coli H. Type of experiment: cell-based. As to conditions: Escherichia coli, as sodium salt, pH 7.0, inoculum 10^6, read-out: Minimal Inhibitory Concentration.
Another experiment has as its system P. morganii No. 9. In words: MIC by agar-dilution, P. morganii No. 9. Type of experiment: cell-based, Proteus morganii. As to conditions: Morganella morganii, as sodium salt, pH 7.0, inoculum 10^6, read-out: Minimal Inhibitory Concentration.
Another experiment has as its system S. pyogenes C-203. Briefly: MIC by agar-dilution, S. pyogenes C-203. It counts as cell-based. As to conditions: Streptococcus pyogenes, C203, as sodium salt, pH 7.0, inoculum 10^6, read-out: Minimal Inhibitory Concentration.
A further experiment relates to S. pneumoniae I. Briefly: MIC by agar-dilution, S. pneumoniae I. It counts as cell-based. As to conditions: Streptococcus pneumoniae, as sodium salt, pH 7.0, inoculum 10^6, read-out: Minimal Inhibitory Concentration.
Another experiment relates to K. pneumoniae 363. In words: MIC by agar-dilution, K. pneumoniae 363. Type of experiment: cell-based. The note with it: Klebsiella pneumoniae, as sodium salt, pH 7.0, inoculum 10^6, read-out: Minimal Inhibitory Concentration.
A further experiment deals with S. marcescens 13880. Briefly: MIC by agar-dilution, S. marcescens 13880. Type of experiment: cell-based. As to conditions: Serratia marcescens, as sodium salt, pH 7.0, inoculum 10^6, read-out: Minimal Inhibitory Concentration.
A further experiment has as its system S. aureus C-14. In words: MIC by agar-dilution, S. aureus C-14. Type of experiment: cell-based. As to conditions: Staphylococcus aureus, C14, as sodium salt, pH 7.0, inoculum 10^6, read-out: Minimal Inhibitory Concentration.
Another experiment has as its system E. coli NIHJ JC-2. In words: MIC by agar-dilution, E. coli NIHJ JC-2. Type of experiment: cell-based. As to conditions: Escherichia coli, NIHJJC2, as sodium salt, pH 7.0, inoculum 10^6, read-out: Minimal Inhibitory Concentration.
For another experiment, the system named is S. aureus Smith. Briefly: MIC by agar-dilution, S. aureus Smith. It counts as cell-based. As to conditions: Staphylococcus aureus, as sodium salt, pH 7.0, inoculum 10^6, read-out: Minimal Inhibitory Concentration.
The test system of the next experiment is E. cloacae 233. Briefly: MIC by agar-dilution, E. cloacae 233. Type of experiment: cell-based. As to conditions: Enterobacter cloacae, as sodium salt, pH 7.0, inoculum 10^6, read-out: Minimal Inhibitory Concentration.
The subject of a further experiment is E. coli 73. In words: MIC by agar-dilution, E. coli 73. Type of experiment: cell-based. As to conditions: Escherichia coli, as sodium salt, pH 7.0, inoculum 10^6, read-out: Minimal Inhibitory Concentration.
In the next experiment the test system is P. vulgaris No. 3. In words: MIC by agar-dilution, P. vulgaris No. 3. Type of experiment: cell-based. The note with it: Proteus vulgaris, as sodium salt, pH 7.0, inoculum 10^6, read-out: Minimal Inhibitory Concentration.
A further experiment has as its system E. cloacae 13047. In words: MIC by agar-dilution, E. cloacae 13047. It counts as cell-based. As to conditions: Enterobacter cloacae, as sodium salt, pH 7.0, inoculum 10^6, read-out: Minimal Inhibitory Concentration.
A further experiment relates to P. aeruginosa 25619. In words: MIC by agar-dilution, P. aeruginosa 25619. It counts as cell-based. The note with it: Pseudomonas aeruginosa, as sodium salt, pH 7.0, inoculum 10^6, read-out: Minimal Inhibitory Concentration.

Each structure is given as a SMILES string.

As for `CO[C@@]1(NC(=O)C(C(=O)O)c2ccc(O)cc2)C(=O)N2C(C(=O)O)=C(CSc3nnc(C)s3)CO[C@@H]21` (stereo partly drawn) [Compound (1), 7α-methoxy-7β-(α-p-hydroxyphenyl-α-carboxyacetamido)-3-(2-methyl-1,3,4-thiadiazol-5-yl)thiomethyl-1-dethia-1-oxa-3-cephem-4-carboxylic acid], the MIC is 0.39 µg/mL in the experiment with P. mirabilis PR-4; 0.78 µg/mL with E. coli EC-14; 12.5 µg/mL in the experiment on S. aureus 209P JC-1; 0.39 µg/mL in the experiment with P. vulgaris CN-329; 1.56 µg/mL in the experiment with E. coli 377; 0.78 µg/mL with K. pneumoniae SHIONOGI. Also, the MIC came out at 25 µg/mL with S. aureus 077; 0.2 µg/mL with E. coli H; 0.78 µg/mL with P. morganii No. 9; 3.13 µg/mL in the experiment with S. pyogenes C-203; 3.13 µg/mL in the experiment on S. pneumoniae I; 0.39 µg/mL with K. pneumoniae 363. Moreover, the MIC in the experiment on S. marcescens 13880 is 3.13 µg/mL; in the experiment with S. aureus C-14, 25 µg/mL; in the experiment on E. coli NIHJ JC-2, 0.78 µg/mL; in the experiment on S. aureus Smith, 25 µg/mL; in the experiment on E. cloacae 233 it was 1.6 µg/mL; in the experiment on E. coli 73 it was 6.25 µg/mL. Also, the MIC with P. vulgaris No. 3 worked out at 0.78 µg/mL; in the experiment with E. cloacae 13047, 50 µg/mL; in the experiment with P. aeruginosa 25619, 25 µg/mL.

With `CO[C@@]1(NC(=O)C(C(=O)O)c2ccc(O)cc2)C(=O)N2C(C(=O)O)=C(CSc3nncs3)CO[C@@H]21` (stereo partly drawn) [Compound (2), 7α-methoxy-7β-(α-p-hydroxyphenyl-α-carboxyacetamido)-3-(1,3,4-thiadiazol-5-yl)thiomethyl-1-dethia-1-oxa-3-cephem-4-carboxylic acid], the MIC with P. mirabilis PR-4 was 0.39 µg/mL; in the experiment on E. coli EC-14 it was 0.39 µg/mL; in the experiment with S. aureus 209P JC-1, 12.5 µg/mL; in the experiment on P. vulgaris CN-329, 0.78 µg/mL; with E. coli 377, 0.78 µg/mL; in the experiment on K. pneumoniae SHIONOGI, 0.39 µg/mL. Further, the MIC with S. aureus 077 came to 25 µg/mL; in the experiment with E. coli H it was 0.2 µg/mL; in the experiment with P. morganii No. 9, 0.78 µg/mL; in the experiment on S. pyogenes C-203, 3.13 µg/mL; with S. pneumoniae I, 6.25 µg/mL; in the experiment with K. pneumoniae 363 it was 0.39 µg/mL. In addition, the MIC in the experiment on S. marcescens 13880 worked out at 1.56 µg/mL; with S. aureus C-14, 25 µg/mL; in the experiment with E. coli NIHJ JC-2 it was 0.39 µg/mL; in the experiment on S. aureus Smith, 12.5 µg/mL; in the experiment with E. cloacae 233, 6.25 µg/mL; with E. coli 73, 3.13 µg/mL. The MIC came out at 0.78 µg/mL in the experiment on P. vulgaris No. 3, 25 µg/mL with E. cloacae 13047 and 25 µg/mL in the experiment with P. aeruginosa 25619.

`CO[C@@]1(NC(=O)C(C(=O)O)c2ccsc2)C(=O)N2C(C(=O)O)=C(CSc3nnc(C)s3)CO[C@@H]21` (stereo partly drawn) [Compound (3), 7α-methoxy-7β-[α-(3-thienyl)-α-carboxyacetamido]-3-(2-methyl-1,3,4-thiadiazol-5-yl)thiomethyl-1-dethia-1-oxa-3-cephem-4-carboxylic acid]: the MIC worked out at 0.1 µg/mL with P. mirabilis PR-4; 0.2 µg/mL with E. coli EC-14; 6.25 µg/mL with S. aureus 209P JC-1; 0.1 µg/mL with P. vulgaris CN-329; 0.78 µg/mL in the experiment on E. coli 377; 0.2 µg/mL in the experiment on K. pneumoniae SHIONOGI. The MIC came out at 6.25 µg/mL in the experiment on S. aureus 077; 0.05 µg/mL in the experiment with E. coli H; 0.2 µg/mL in the experiment with P. morganii No. 9; 0.78 µg/mL with S. pyogenes C-203; 3.13 µg/mL with S. pneumoniae I; 0.78 µg/mL with K. pneumoniae 363. For the same compound, the MIC came out at 1.56 µg/mL in the experiment on S. marcescens 13880; 6.25 µg/mL in the experiment on S. aureus C-14; 0.39 µg/mL in the experiment with E. coli NIHJ JC-2; 6.25 µg/mL with S. aureus Smith; 12.5 µg/mL with E. cloacae 233; 1.56 µg/mL in the experiment with E. coli 73. In addition, the MIC in the experiment on P. vulgaris No. 3 was determined as 0.39 µg/mL; in the experiment with E. cloacae 13047 it was 25 µg/mL; in the experiment on P. aeruginosa 25619, 25 µg/mL.

Regarding `CO[C@@]1(NC(=O)C(C(=O)O)c2ccsc2)C(=O)N2C(C(=O)O)=C(CSc3nncs3)CO[C@@H]21` (stereo partly drawn) [Compound (4), 7α-methoxy-7β-[α-(3-thienyl)-α-carboxyacetamido]-3-(1,3,4-thiadiazol-5-yl)thiomethyl-1-dethia-1-oxa-3-cephem-4-carboxylic acid], the MIC in the experiment with P. mirabilis PR-4 came to 0.2 µg/mL; with E. coli EC-14, 0.1 µg/mL; in the experiment with S. aureus 209P JC-1 it was 6.25 µg/mL; with P. vulgaris CN-329, 0.2 µg/mL; with E. coli 377 it was 0.39 µg/mL; with K. pneumoniae SHIONOGI, 0.2 µg/mL. Moreover, the MIC in the experiment on S. aureus 077 was 6.25 µg/mL; with E. coli H it was 0.1 µg/mL; in the experiment on P. morganii No. 9, 0.2 µg/mL; in the experiment on S. pyogenes C-203, 3.13 µg/mL; in the experiment on S. pneumoniae I, 6.25 µg/mL; in the experiment on K. pneumoniae 363, 0.2 µg/mL. Further, the MIC came to 0.39 µg/mL in the experiment with S. marcescens 13880; 6.25 µg/mL in the experiment with S. aureus C-14; 0.2 µg/mL with E. coli NIHJ JC-2; 6.25 µg/mL with S. aureus Smith; 6.25 µg/mL in the experiment with E. cloacae 233; 0.78 µg/mL in the experiment on E. coli 73. Besides, the MIC in the experiment on P. vulgaris No. 3 came out at 0.39 µg/mL; in the experiment on E. cloacae 13047, 12.5 µg/mL; with P. aeruginosa 25619, 25 µg/mL.
